Data published in US20100029619A1, “FUSED HETEROCYCLIC COMPOUND” (TAKEDA PHARMACEUTICAL COMPANY LIMTED, priority 2006, published 2010).

melting point [°C]	Compound
292 to 293	CC(C)(CNC(=O)c1ncc[nH]1)c1ccc(C(=O)Nc2cn3cc(C(F)(F)F)ccc3n2)cc1 [Example 457, N-[2-methyl-2-(4-{[6-(trifluoromethyl)imidazo[1,2-a]pyridin-2-yl]carbamoyl}phenyl)propyl]-1H-imidazole-2-carboxamide]
261 to 263	CC(C)(CNC(=O)Cc1cnc[nH]1)c1ccc(C(=O)Nc2cn3cc(C(F)(F)F)ccc3n2)cc1 [Example 458, 4-{2-[(1H-imidazol-5-ylacetyl)amino]-1,1-dimethylethyl}-N-[6-(trifluoromethyl)imidazo[1,2-a]pyridin-2-yl]benzamide]
152 to 153	CC(C)(CCO)c1ccc(C(=O)Nc2cn3cc(C(F)(F)F)ccc3n2)cc1 [Example 459, 4-(3-hydroxy-1,1-dimethylpropyl)-N-[6-(trifluoromethyl)imidazo[1,2-a]pyridin-2-yl]benzamide]
227 to 229	CC(C)(CO)c1ccc(C(=O)Nc2cn3cc(C(F)(F)F)ccc3n2)cc1 [Example 461, 4-(2-hydroxy-1,1-dimethylethyl)-N-[6-(trifluoromethyl)imidazo[1,2-a]pyridin-2-yl]benzamide]
275 to 277	Cn1cc(-c2ccc3nc(NC(=O)c4ccc(C(C)(C)CO)cc4)cn3c2)cn1 [Example 462, 4-(2-hydroxy-1,1-dimethylethyl)-N-[6-(1-methyl-1H-pyrazol-4-yl)imidazo[1,2-a]pyridin-2-yl]benzamide]
293 to 296	CC(C)(CO)c1ccc(C(=O)Nc2cn3cc(-c4cn[nH]c4)ccc3n2)cc1 [Example 464, 4-(2-hydroxy-1,1-dimethylethyl)-N-[6-(1H-pyrazol-4-yl)imidazo[1,2-a]pyridin-2-yl]benzamide]
246 to 248	CC(C)(CO)c1ccc(C(=O)Nc2cn3cc(-c4ccoc4)ccc3n2)cc1 [Example 465, N-[6-(3-furyl)imidazo[1,2-a]pyridin-2-yl]-4-(2-hydroxy-1,1-dimethylethyl)benzamide]
250 to 252	CC(C)(CO)c1ccc(C(=O)Nc2cn3cc(-c4ccsc4)ccc3n2)cc1 [Example 466, 4-(2-hydroxy-1,1-dimethylethyl)-N-[6-(3-thienyl)imidazo[1,2-a]pyridin-2-yl]benzamide]
182 to 184	CC(C)(CCO)c1ccc(C(=O)Nc2cn3cc(Cl)ccc3n2)cc1 [Example 467, N-(6-chloroimidazo[1,2-a]pyridin-2-yl)-4-(3-hydroxy-1,1-dimethylpropyl)benzamide]
225 to 227	CC(C)(CCO)c1ccc(C(=O)Nc2cn3cc(-n4ccnc4)ccc3n2)cc1 [Example 468, 4-(3-hydroxy-1,1-dimethylpropyl)-N-[6-(1H-imidazol-1-yl)imidazo[1,2-a]pyridin-2-yl]benzamide]
274 to 276	CC(C)(C)c1ccc(C(=O)Nc2cn3cc(-n4cncn4)ccc3n2)cc1 [Example 469, 4-tert-butyl-N-[6-(1H-1,2,4-triazol-1-yl)imidazo[1,2-a]pyridin-2-yl]benzamide]
